Experimental data as given in patent US20240425518A1, “N-MACROCYCLIC AMIDE COMPOUNDS, PREPARATION METHODS THEREOF AND APPLICATIONS THEREOF AS MEDICAMENTS” (Chengdu FANXI Biopharma Co., Ltd., priority 2023, published 2024).

Assays:
U266 Human myeloma cells = assay: MTT cell proliferation inhibition, U266; format: cell-based; conditions: U-266, U266, 72 hours
Description: (§1) Human cancer cells were purchased from ATCC. The cells were cultured in a culture medium according to the work instruction of ATCC. A dose-response curve was drawn by XL-fitting to determine an IC50 value of a compound. […] Cell proliferation inhibition could be detected by a MTT method (3-(4,5-Dimethylthiazol-2-yl)-2,5-diphenyltetrazolium bromide, and MTT; and 3-(4,5-dimethyl thiazole-2)-2,5-diphenyltertazolium bromide, and thiazolyl blue).
(§2) The cells were cultured in a culture dish first, and the cells in a logarithmic growth phase were inoculated into a 96-well plate (3,000 to 5,000 adherent cells/well, 10,000 to 30,000 suspended cells/well) according to a specific number, with 100 microliters per well, and then cultured in an incubator of 5% CO2 and 37° C. […] An absorbance of a general control group should be a normal value between 0.8 and 1.2. After obtaining absorbance data, a change curve of an inhibition rate was fitted by GraphPad Prism6.03 software and an IC50 value was calculated.
(§3) Calculation of drug inhibition rate: relative cell proliferation inhibition rate=[(control group A570−experimental group A570)/control group […], wherein A570 represented the absorbance at 570 nm.

[1] = tested on: HGC-27 Human gastric cancer cells; assay: MTT cell proliferation inhibition, HGC-27; format: cell-based; conditions: HGC-27, 72 hours
Description: as §1, §2, §3

[2] = tested on: MV4-11 Human acute myelogenous leukemia; assay: MTT cell proliferation inhibition, MV4-11; format: cell-based; conditions: MV4-11, 72 hours
Description: as §1, §2, §3

[3] = tested on: MGC-803 Human gastric cancer cells; assay: MTT cell proliferation inhibition, MGC-803; format: cell-based; conditions: MGC-803, 72 hours
Description: as §1, §2, §3

[4] = tested on: Karpas-299 Human anaplastic large cell lymphoma cells; assay: MTT cell proliferation inhibition, Karpas-299; format: cell-based; conditions: Karpas-299, 72 hours
Description: as §1, §2, §3

MM1S Human myeloma cells = assay: MTT cell proliferation inhibition, MM1S; format: cell-based; conditions: MM1.S, 72 hours
Description: as §1, §2, §3

Ret (V804M) (h) = target: T1, Ret (V804M) (h) (Homo sapiens, UniProt P07949, V804M); assay: Radioisotope labeling kinase assay (Eurofins), Ret (V804M); format: biochemical
T1 construct: purchased Eurofins
T1 sequence (P07949 29-1114 V804M): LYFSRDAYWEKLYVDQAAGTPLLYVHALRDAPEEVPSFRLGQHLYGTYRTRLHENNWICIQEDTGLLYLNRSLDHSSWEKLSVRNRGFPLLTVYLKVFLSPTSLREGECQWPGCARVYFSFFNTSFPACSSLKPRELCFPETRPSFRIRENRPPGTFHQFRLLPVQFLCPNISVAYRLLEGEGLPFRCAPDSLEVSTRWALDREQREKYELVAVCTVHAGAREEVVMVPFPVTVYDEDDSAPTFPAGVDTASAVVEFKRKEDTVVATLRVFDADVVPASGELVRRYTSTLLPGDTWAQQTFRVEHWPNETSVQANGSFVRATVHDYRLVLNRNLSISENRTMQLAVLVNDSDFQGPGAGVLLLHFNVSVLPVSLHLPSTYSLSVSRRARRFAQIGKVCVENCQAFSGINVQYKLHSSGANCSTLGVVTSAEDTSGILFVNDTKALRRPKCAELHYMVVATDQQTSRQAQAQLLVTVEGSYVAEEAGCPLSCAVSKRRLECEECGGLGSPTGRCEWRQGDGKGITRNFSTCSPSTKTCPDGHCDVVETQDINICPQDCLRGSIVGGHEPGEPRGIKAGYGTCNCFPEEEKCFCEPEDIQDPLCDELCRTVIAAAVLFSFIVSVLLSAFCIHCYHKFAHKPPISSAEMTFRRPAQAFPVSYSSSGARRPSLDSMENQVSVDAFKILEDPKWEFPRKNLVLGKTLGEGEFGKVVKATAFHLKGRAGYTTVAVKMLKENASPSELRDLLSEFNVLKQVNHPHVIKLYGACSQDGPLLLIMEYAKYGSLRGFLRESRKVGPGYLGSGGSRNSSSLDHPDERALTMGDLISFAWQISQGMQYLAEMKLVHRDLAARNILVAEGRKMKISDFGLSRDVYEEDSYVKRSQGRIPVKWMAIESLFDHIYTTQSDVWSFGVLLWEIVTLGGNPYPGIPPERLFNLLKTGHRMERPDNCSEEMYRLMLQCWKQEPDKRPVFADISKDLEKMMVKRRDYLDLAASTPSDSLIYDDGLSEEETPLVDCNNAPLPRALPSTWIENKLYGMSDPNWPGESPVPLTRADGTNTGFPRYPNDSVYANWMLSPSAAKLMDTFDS
Description: An activity to a human recombinant protein kinase of a series of compounds was determined by a radioisotope labeling method, which was provided by Eurofins Company. A compound to be detected was mixed with a corresponding protein kinase buffer (20 mM propyl sulfonate (MOPS, […].), 1 mM EDTA, 0.10 β-mercaptoethanol, 0.010 Brij-35, […], and 1 mg/mL BSA), the mixture was added into a reaction system (100 μM reaction substrate […], 8 mM MOPS with a pH value of 7.0, 10 mM MgAcetate, 0.2 mM EDTA, and a certain concentration of γ-^33P-ATP). After adding an MgATP composite solution, the reaction was started at room temperature for 40 minutes, and the reaction was terminated by adding 5 μl of […] solution. Then, 10 μl of reaction solution was dropwise added onto a filter and washed with 75 mM phosphoric acid solution for three times, 5 minutes each time, then washed with methanol once again, and dried and subjected to scintillation counting.

| Compound | IC50 (U266 Human myeloma cells) [µM] | IC50 [1] [µM] | IC50 [2] [µM] | IC50 [3] [µM] | IC50 [4] [µM] | IC50 (MM1S Human myeloma cells) [µM] | IC50 (Ret (V804M) (h)) [µM] |
| --- | --- | --- | --- | --- | --- | --- | --- |
| O=C(/C=C/CN1CCCC1)Nc1cc2cc(c1)Nc1nccc(n1)-c1cccc(c1)COC/C=C/COC2 [XVI-1] | 0.614 | 0.11 | 0.03 | 0.573 | 0.133 | 0.092 |  |
| O=C(/C=C/CN1CCOCC1)Nc1cc2cc(c1)Nc1nccc(n1)-c1cccc(c1)COC/C=C/COC2 [XVI-3] | 2.7 | 0.495 | 0.087 | 2.76 | 1.18 | 0.379 |  |
| C1=C/COCc2cccc(c2)-c2ccnc(n2)Nc2cc(cc(OC/C=C/CN3CCCC3)c2)COC/1 [XVI-12] |  |  |  |  |  |  | 0.122 |
